Assay results taken from US20260130395A1, “Water Dispersible Botanical Compositions” (Aquila Black Limited, priority 2021, published 2026).

Test: Stability of cannabinoid compounds and Vitamin E components in Beverage 1 (AB White) by LCMSMS
Format: physicochemical
Conditions: for Stability of Plant-Derived Cannabinoid Compounds in AB White, 8° C.: AB White stored at 8° C.; for Stability of Plant-Derived Cannabinoid Compounds in AB White, 21-25° C.: AB White stored at 21-25° C.

CCCCCc1cc(O)c2c(c1)OC(C)(CCC=C(C)C)C=C2 (centres unmarked) [CBC, cannabichromene]
Stability of Plant-Derived Cannabinoid Compounds in AB White, 8° C. (0 days): 0.320 µg/mL | Stability of Plant-Derived Cannabinoid Compounds in AB White, 8° C. (1 days): 0.314 µg/mL | Stability of Plant-Derived Cannabinoid Compounds in AB White, 8° C. (2 days): 0.315 µg/mL | Stability of Plant-Derived Cannabinoid Compounds in AB White, 8° C. (3 days): 0.322 µg/mL | Stability of Plant-Derived Cannabinoid Compounds in AB White, 8° C. (5 days): 0.322 µg/mL | Stability of Plant-Derived Cannabinoid Compounds in AB White, 8° C. (8 days): 0.318 µg/mL | Stability of Plant-Derived Cannabinoid Compounds in AB White, 8° C. (9 days): 0.319 µg/mL | Stability of Plant-Derived Cannabinoid Compounds in AB White, 8° C. (10 days): 0.314 µg/mL | Stability of Plant-Derived Cannabinoid Compounds in AB White, 8° C. (11 days): 0.314 µg/mL | Stability of Plant-Derived Cannabinoid Compounds in AB White, 8° C. (12 days): 0.319 µg/mL | Stability of Plant-Derived Cannabinoid Compounds in AB White, 8° C. (15 days): 0.317 µg/mL | Stability of Plant-Derived Cannabinoid Compounds in AB White, 8° C. (16 days): 0.320 µg/mL | Stability of Plant-Derived Cannabinoid Compounds in AB White, 8° C. (17 days): 0.315 µg/mL | Stability of Plant-Derived Cannabinoid Compounds in AB White, 8° C. (18 days): 0.312 µg/mL | Stability of Plant-Derived Cannabinoid Compounds in AB White, 8° C. (19 days): 0.317 µg/mL | Stability of Plant-Derived Cannabinoid Compounds in AB White, 8° C. (22 days): 0.315 µg/mL | Stability of Plant-Derived Cannabinoid Compounds in AB White, 8° C. (23 days): 0.321 µg/mL | Stability of Plant-Derived Cannabinoid Compounds in AB White, 8° C. (24 days): 0.316 µg/mL | Stability of Plant-Derived Cannabinoid Compounds in AB White, 8° C. (25 days): 0.310 µg/mL | Stability of Plant-Derived Cannabinoid Compounds in AB White, 8° C. (26 days): 0.316 µg/mL | Stability of Plant-Derived Cannabinoid Compounds in AB White, 8° C. (29 days): 0.321 µg/mL | Stability of Plant-Derived Cannabinoid Compounds in AB White, 8° C. (30 days): 0.31 µg/mL | Stability of Plant-Derived Cannabinoid Compounds in AB White, 8° C. (60 days): 0.316 µg/mL | Stability of Plant-Derived Cannabinoid Compounds in AB White, 8° C. (90 days): 0.318 µg/mL | Stability of Plant-Derived Cannabinoid Compounds in AB White, 8° C. (120 days): 0.311 µg/mL | Stability of Plant-Derived Cannabinoid Compounds in AB White, 8° C. (150 days): 0.314 µg/mL | Stability of Plant-Derived Cannabinoid Compounds in AB White, 8° C. (180 days): 0.319 µg/mL | Stability of Plant-Derived Cannabinoid Compounds in AB White, 8° C. (210 days): 0.309 µg/mL | Stability of Plant-Derived Cannabinoid Compounds in AB White, 8° C. (240 days): 0.316 µg/mL | Stability of Plant-Derived Cannabinoid Compounds in AB White, 8° C. (270 days): 0.316 µg/mL | Stability of Plant-Derived Cannabinoid Compounds in AB White, 8° C. (300 days): 0.313 µg/mL | Stability of Plant-Derived Cannabinoid Compounds in AB White, 8° C. (330 days): 0.316 µg/mL | Stability of Plant-Derived Cannabinoid Compounds in AB White, 8° C. (360 days): 0.306 µg/mL | Stability of Plant-Derived Cannabinoid Compounds in AB White, 8° C. (390 days): 0.310 µg/mL | Stability of Plant-Derived Cannabinoid Compounds in AB White, 8° C. (420 days): 0.307 µg/mL | Stability of Plant-Derived Cannabinoid Compounds in AB White, 8° C. (450 days): 0.312 µg/mL | Stability of Plant-Derived Cannabinoid Compounds in AB White, 8° C. (480 days): 0.305 µg/mL | Stability of Plant-Derived Cannabinoid Compounds in AB White, 8° C. (510 days): 0.295 µg/mL | Stability of Plant-Derived Cannabinoid Compounds in AB White, 8° C. (540 days): 0.299 µg/mL | Stability of Plant-Derived Cannabinoid Compounds in AB White, 8° C. (570 days): 0.293 µg/mL | Stability of Plant-Derived Cannabinoid Compounds in AB White, 21-25° C. (0 days): 0.320 µg/mL | Stability of Plant-Derived Cannabinoid Compounds in AB White, 21-25° C. (1 days): 0.313 µg/mL | Stability of Plant-Derived Cannabinoid Compounds in AB White, 21-25° C. (2 days): 0.318 µg/mL | Stability of Plant-Derived Cannabinoid Compounds in AB White, 21-25° C. (3 days): 0.311 µg/mL | Stability of Plant-Derived Cannabinoid Compounds in AB White, 21-25° C. (5 days): 0.323 µg/mL | Stability of Plant-Derived Cannabinoid Compounds in AB White, 21-25° C. (8 days): 0.319 µg/mL | Stability of Plant-Derived Cannabinoid Compounds in AB White, 21-25° C. (9 days): 0.307 µg/mL | Stability of Plant-Derived Cannabinoid Compounds in AB White, 21-25° C. (10 days): 0.312 µg/mL | Stability of Plant-Derived Cannabinoid Compounds in AB White, 21-25° C. (11 days): 0.311 µg/mL | Stability of Plant-Derived Cannabinoid Compounds in AB White, 21-25° C. (12 days): 0.316 µg/mL | Stability of Plant-Derived Cannabinoid Compounds in AB White, 21-25° C. (15 days): 0.311 µg/mL | Stability of Plant-Derived Cannabinoid Compounds in AB White, 21-25° C. (16 days): 0.321 µg/mL | Stability of Plant-Derived Cannabinoid Compounds in AB White, 21-25° C. (17 days): 0.323 µg/mL | Stability of Plant-Derived Cannabinoid Compounds in AB White, 21-25° C. (18 days): 0.313 µg/mL | Stability of Plant-Derived Cannabinoid Compounds in AB White, 21-25° C. (19 days): 0.316 µg/mL | Stability of Plant-Derived Cannabinoid Compounds in AB White, 21-25° C. (22 days): 0.322 µg/mL | Stability of Plant-Derived Cannabinoid Compounds in AB White, 21-25° C. (23 days): 0.316 µg/mL | Stability of Plant-Derived Cannabinoid Compounds in AB White, 21-25° C. (24 days): 0.308 µg/mL | Stability of Plant-Derived Cannabinoid Compounds in AB White, 21-25° C. (25 days): 0.310 µg/mL | Stability of Plant-Derived Cannabinoid Compounds in AB White, 21-25° C. (26 days): 0.308 µg/mL | Stability of Plant-Derived Cannabinoid Compounds in AB White, 21-25° C. (29 days): 0.317 µg/mL | Stability of Plant-Derived Cannabinoid Compounds in AB White, 21-25° C. (30 days): 0.317 µg/mL | Stability of Plant-Derived Cannabinoid Compounds in AB White, 21-25° C. (60 days): 0.306 µg/mL | Stability of Plant-Derived Cannabinoid Compounds in AB White, 21-25° C. (90 days): 0.305 µg/mL | Stability of Plant-Derived Cannabinoid Compounds in AB White, 21-25° C. (120 days): 0.318 µg/mL | Stability of Plant-Derived Cannabinoid Compounds in AB White, 21-25° C. (150 days): 0.312 µg/mL | Stability of Plant-Derived Cannabinoid Compounds in AB White, 21-25° C. (180 days): 0.315 µg/mL | Stability of Plant-Derived Cannabinoid Compounds in AB White, 21-25° C. (210 days): 0.307 µg/mL | Stability of Plant-Derived Cannabinoid Compounds in AB White, 21-25° C. (240 days): 0.304 µg/mL | Stability of Plant-Derived Cannabinoid Compounds in AB White, 21-25° C. (270 days): 0.316 µg/mL | Stability of Plant-Derived Cannabinoid Compounds in AB White, 21-25° C. (300 days): 0.312 µg/mL | Stability of Plant-Derived Cannabinoid Compounds in AB White, 21-25° C. (330 days): 0.312 µg/mL | Stability of Plant-Derived Cannabinoid Compounds in AB White, 21-25° C. (360 days): 0.310 µg/mL | Stability of Plant-Derived Cannabinoid Compounds in AB White, 21-25° C. (390 days): 0.303 µg/mL | Stability of Plant-Derived Cannabinoid Compounds in AB White, 21-25° C. (420 days): 0.312 µg/mL | Stability of Plant-Derived Cannabinoid Compounds in AB White, 21-25° C. (450 days): 0.310 µg/mL | Stability of Plant-Derived Cannabinoid Compounds in AB White, 21-25° C. (480 days): 0.294 µg/mL | Stability of Plant-Derived Cannabinoid Compounds in AB White, 21-25° C. (510 days): 0.293 µg/mL | Stability of Plant-Derived Cannabinoid Compounds in AB White, 21-25° C. (540 days): 0.294 µg/mL | Stability of Plant-Derived Cannabinoid Compounds in AB White, 21-25° C. (570 days): 0.295 µg/mL
